# Legend:
# [1] = system: Jurkat cells; assay: Determination of cell diameter of Jurkat cells (EVE automatic cell counter); type: cell-based, human
# Procedure: Cell diameters were measured with an EVE automatic cell counter (NanoEnTek, Seoul, South Korea). For cell diameter studies, a suitable protocol for Jurkat cells was established and all measurements were validated by visual inspection and if necessary corrected by hand using a personal computer based software. Viability was estimated by using trypan blue exclusion assays.
# (§1) Cells were exposed to X-ray irradiation in cell culture flasks using an Isovolt 160 Titan E source with a voltage of 90 kV and 33.7 mA (GE Sensing & Inspection Technologies, Alzenau, Germany). Doses were delivered at a 30 cm source to probe distance with cell culture flasks placed on a 2 mm aluminum sheet. CDK1-inhibitor RO3306 (Axon Medchem, Groningen, Netherlands) was dissolved in DMSO at 14.2 mM and added to the cell culture medium in a final concentration of 3 µM. Cyclosporin A (Sigma-Aldrich) was dissolved in ddH2O and added to the cell culture medium of non-irradiated control cells or directly after irradiation of cells in a concentration of 1 µM. The cell permeable Ca^2+ buffer BAPTA-AM [1,2-Bis(2-aminophenoxy)ethane-N,N,N',N'-tetraacetic acid tetrakis(acetoxymethyl) ester, Thermo Fisher] was added to the cell culture medium 30 min prior to cell irradiation at 50 µM and was removed immediately after irradiation. Phytohemagglutinin (PHA-L) was purchased from Biochrom (Berlin, Germany). Cells were treated for 48 h by adding PHA-L to the cell culture medium at a concentration of 7.2 µg/ml. To activate human T-cells ImmunoCult™ Human CD3/CD28/CD2 T Cell Activator (Stem cell Technologies, Vancouver, BC, Canada) was added to the cell culture medium (25 µL per 1 mL of cell suspension) and maintained at 37°C and 5% CO2 for 48 h. The KCa2.2-specific ion channel blocker Tamapin was purchased from Alomone Labs (Jerusalem, Israel) and dissolved in purified water and diluted in external solution for patch clamp experiments.
# [2] = system: peripheral blood lymphocytes (PBL); assay: Determination of cell diameter of PBL after mitogen stimulation; type: cell-based, human; details: PHA-L 7.2 µg/ml, 48 h
# Procedure: Jurkat cells (ACC 282) were purchased from the German Collection of Microorganisms and Cell Cultures (DSMZ, Braunschweig, Germany). The human EC line EA.hy926 (Crl-2922) was established by fusion of human umbilical vein ECs and the adenocarcinoma epithelial cell line A549 ([18]) and was purchased from ATCC (LGC Standards, Wesel, Germany). Cells were either grown in RPMI 1640 medium (Jurkat), supplemented with 10% heat inactivated fetal calf serum (FCS; PAA, Cölbe, Germany) and 2 mM L-glutamine or in Dulbecco’s modified Eagle’s medium (Invitrogen, Karlsruhe, Germany), supplemented with 10% FCS 50 U/ml penicillin and 5 µg/ml streptomycin (Sigma-Aldrich, Munich, Germany). PBL were isolated from buffy coats using density gradient centrifugation (Biochrom, Berlin, Germany). After centrifugation (40 min at 1,000 × g, RT) interphase cells were isolated, washed twice with PBS, and pelleted by centrifugation (300 × g, 10 min). For adhesion assays, Jurkat cells and PBL were biotinylated by incubation (15 min on ice) with a biotin-N-hydroxysuccinimid ester (NHS-biotin, 10 mg/ml, Sigma-Aldrich) and maintained in RPMI 1640 Medium with 20% FCS, 1% HEPES, and 1% penicillin/streptomycin prior to assays. […]
# Cell diameters were measured with an EVE automatic cell counter (NanoEnTek, Seoul, South Korea). […]
# [3] = system: KCa2.2 channels; details: cited from earlier work
# [4] = biological target: T1, KCa2.2 channels (Homo sapiens, UniProt Q9H2S1); assay: Whole cell patch clamp recording of background current Ib in Jurkat cells; type: cell-based; details: Tamapin 10 nM
# T1 construct: This small current includes, among others, the voltage independent small conductance K^+ channel KCa2.2; endogenous in cells; host or cells: Jurkat cells (ACC 282, DSMZ)
# Procedure: as §1, with “To activate human T-cells ImmunoCult™ Human CD3/CD28/CD2 T Cell Activator (Stem cell Technologies, Vancouver, BC, Canada) was added to the cell culture medium (25 µL per 1 mL of cell suspension) and maintained at 37°C and 5% CO2 for 48 h. The KCa2.2-specific ion channel blocker Tamapin was purchased from Alomone Labs (Jerusalem, Israel) and dissolved in purified water and diluted in external solution for patch clamp experiments.” left out
# Membrane currents of cells were recorded in a whole cell configuration ([26]) using an EPC-9 amplifier (HEKA Electronics, Lambrecht, Germany). […] Currents were recorded and data analyzed with an EPC-9 amplifier and Patchmaster Software (all from Heka Electronic).
# [5] = system: Jurkat cells; assay: Cell cycle analysis by flow cytometry (PI DNA content, cells in G2); type: cell-based, human; details: non-irradiated Jurkat cells, 3 µM RO3306
# Procedure: Cells were exposed to X-ray irradiation in cell culture flasks using an Isovolt 160 Titan E source with a voltage of 90 kV and 33.7 mA (GE Sensing & Inspection Technologies, Alzenau, Germany). Doses were delivered at a 30 cm source to probe distance with cell culture flasks placed on a 2 mm aluminum sheet. CDK1-inhibitor RO3306 (Axon Medchem, Groningen, Netherlands) was dissolved in DMSO at 14.2 mM and added to the cell culture medium in a final concentration of 3 µM. Cyclosporin A (Sigma-Aldrich) was dissolved in ddH2O and added to the cell culture medium of non-irradiated control cells or directly after irradiation of cells in a concentration of 1 µM. The cell permeable Ca^2+ buffer BAPTA-AM [1,2-Bis(2-aminophenoxy)ethane-N,N,N',N'-tetraacetic acid tetrakis(acetoxymethyl) ester, Thermo Fisher] was added to the cell culture medium 30 min prior to cell irradiation at 50 µM and was removed immediately after irradiation. […]
# Flow cytometric analyses were performed after 48 h following irradiation with propidium iodide (PI) solution (4% PI stock, 0.5 mg/ml PI, 38 mM sodium citrate, pH 7), 5% RNAse A stock (RNAse A 5 mg/ml, Tris–HCl 10 mM, NaCl 15 mM, pH 7) using a BioRad S3 Cell Sorter and the FlowJo 10 software for analysis (FlowJo LLC). The percentage of cells in G2/M phases was determined by single-parameter histograms of DNA content.
# T1 sequence (Q9H2S1 whole entry): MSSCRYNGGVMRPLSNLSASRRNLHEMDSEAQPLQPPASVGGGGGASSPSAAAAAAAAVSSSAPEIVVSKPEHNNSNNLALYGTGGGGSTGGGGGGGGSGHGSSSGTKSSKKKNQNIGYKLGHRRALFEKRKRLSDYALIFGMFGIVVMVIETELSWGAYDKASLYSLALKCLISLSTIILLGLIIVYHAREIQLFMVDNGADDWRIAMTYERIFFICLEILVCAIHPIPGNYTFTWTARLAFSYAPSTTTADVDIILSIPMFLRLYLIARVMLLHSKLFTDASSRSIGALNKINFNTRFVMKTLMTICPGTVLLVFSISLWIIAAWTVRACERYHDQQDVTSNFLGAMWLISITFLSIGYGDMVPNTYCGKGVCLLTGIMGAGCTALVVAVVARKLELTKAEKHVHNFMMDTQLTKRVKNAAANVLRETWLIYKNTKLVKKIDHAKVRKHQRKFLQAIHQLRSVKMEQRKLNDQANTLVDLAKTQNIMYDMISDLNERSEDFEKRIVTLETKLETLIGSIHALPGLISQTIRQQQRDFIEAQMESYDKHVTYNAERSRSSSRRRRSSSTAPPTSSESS
compound,measurement,setting,value
"CC(=O)OCOC(=O)CN(CC(=O)OCOC(C)=O)c1ccccc1OCCOc1ccccc1N(CC(=O)OCOC(C)=O)CC(=O)OCOC(C)=O [BAPTA-AM, 1,2-Bis(2-aminophenoxy)ethane-N,N,N',N'-tetraacetic acid tetrakis(acetoxymethyl) ester]",effect on radiation-induced increase in cell diameter,"[1]; Jurkat cells irradiated with 2 Gy, cyclosporine A 1 µM or BAPTA-AM 50 µM",decreased the effect of irradiation
same,reduction of the radiation-induced cell diameter increase,"[1]; irradiated Jurkat cells, cyclosporine A 1 µM or BAPTA-AM 50 µM",50%
Phytohemagglutinin [PHA-L],fraction of cells with increased mean size,"[2]; PBL from healthy donors, fit with two Gaussians",45%
same,mean size (diameter) of the enlarged cell population,"[2]; PBL, mock treated 7.2 µm",10.2 µm
"Tamapin: scorpion toxin, KCa2.2-specific ion channel blocker (Alomone Labs) (AFCNLRRCELSCRSLGLLGKCIGEECKCVPY; UniProt P59869 1-31, looked up)",IC50,[3],0.024 nM
same,inhibition of Ib,"[4]; irradiated Jurkat cells (1.25 Gy, 48 h after X-ray)",23 ± 10%
same,inhibition of Ib,"[4]; mock-irradiated control Jurkat cells, N = 3",3.3 ± 0.7%
O=C1NC(=NCc2cccs2)S/C1=C\c1ccc2ncccc2c1 [RO3306],increase in cell diameter,"[1]; non-irradiated Jurkat cells, 3 µM RO3306",9.6 ± 3%
same,cells arrested in G2 phase,[5],71%
